Measured values as given in patent US20100267561A1, “HERBICIDAL PYRIDAZINONE DERIVATIVES” (priority 2007, published 2010).

Assays:
Format in all cases: in vivo
[1] = tested on: canarygrass (Phalaris minor); assay: Test B postemergence plant response; conditions: for Plant response rating, Canarygrass: Postemergence
Protocol: (§1) At the same time, plants selected from these crop and weed species and also winter barley (Hordeum vulgare), canarygrass (Phalaris minor), chickweed (Stellaria media) and windgrass (Apera spica-venti) were treated with postemergence applications of some of the test chemicals formulated in the same manner. Plants ranged in height from 2 to 18 cm (1- to 4-leaf stage) for postemergence treatments.
(§2) Plant species in the flooded paddy test consisted of rice (Oryza sativa), umbrella sedge (Cyperus difformis), ducksalad (Heteranthera limosa) and barnyardgrass (Echinochloa crus-galli) grown to the 2-leaf stage for testing. At time of treatment, test pots were flooded to 3 cm above the soil surface, treated by application of test compounds directly to the paddy water, and then maintained at that water depth for the duration of the test. Treated plants and controls were maintained in a greenhouse for 13 to 15 days, after which time all species were compared to controls and visually evaluated. Plant response ratings, summarized in Table B, are based on a scale of 0 to 100 where 0 is no effect and 100 is complete control. A dash (-) response means no test result.

[2] = tested on: chickweed (Stellaria media); assay: Test B postemergence plant response; conditions: for Plant response rating, Chickweed: Postemergence
Protocol: as §1, §2

[3] = tested on: winter barley (Hordeum vulgare); assay: Test B postemergence plant response; conditions: for Plant response rating, Barley: Postemergence, scale 0 to 100, 0 no effect, 100 complete control
Protocol: as §1, §2

[4] = tested on: windgrass (Apera spica-venti); assay: Test B postemergence plant response; conditions: for Windgrass plant response rating: postemergence, 0-100 scale; for Plant response rating, Windgrass: Postemergence
Protocol: as §1, §2

[5] = tested on: wheat (Triticum aestivum); assay: Test B pre-/postemergence plant response; conditions: for Wheat plant response rating: postemergence, 0-100 scale; for Plant response rating, Wheat: Postemergence
Excerpt: (§3) Seeds of plant species selected from blackgrass (Alopecurus myosuroides), downy bromegrass (Bromus tectorum), green foxtail (Setaria viridis), Italian ryegrass (Lolium multiflorum), wheat (Triticum aestivum), wild oat (Avena fatua), catchweed bedstraw (Galium aparine), bermudagrass (Cynodon dactylon), surinam grass (Brachiaria decumbens), cocklebur (Xanthium strumarium), corn (Zea mays), large crabgrass (Digitaria sanguinalis), woolly cupgrass (Eriochloa villosa), giant foxtail (Setaria faberii), goosegrass (Eleusine indica), johnsongrass (Sorghum halepense), kochia (Kochia scoparia), lambsquarters (Chenopodium album), morningglory (Ipomoea coccinea), eastern black (E.B.) nightshade (Solanum ptycanthum), yellow nutsedge (Cyperus esculentus), pigweed (Amaranthus retroflexus), common ragweed (Ambrosia elation), Russian thistle (Salsola iberica), soybean (Glycine max), common (oilseed) sunflower (Helianthus annuus), and velvetleaf (Abutilon theophrasti) were planted and treated preemergence with test chemicals formulated in a non-phytotoxic solvent mixture which included a surfactant.
as §1, §2

soybean (Glycine max) = assay: Test B pre-/postemergence plant response; conditions: for Soybean plant response rating: postemergence, 0-100 scale; for Plant response rating, Soybean: Postemergence
Excerpt: as §3, §1, §2

[6] = tested on: bermudagrass (Cynodon dactylon); assay: Test B pre-/postemergence plant response; conditions: for Plant response rating, Bermudagrass: Postemergence
Excerpt: as §3, §1, §2

[7] = tested on: pigweed (Amaranthus retroflexus); assay: Test B pre-/postemergence plant response; conditions: for Pigweed plant response rating: postemergence, 0-100 scale; for Plant response rating, Pigweed: Postemergence
Excerpt: as §3, §1, §2

[8] = tested on: downy bromegrass (Bromus tectorum); assay: Test B pre-/postemergence plant response; conditions: for Plant response rating, Bromegrass, Downy: Postemergence
Excerpt: as §3, §1, §2

[9] = tested on: giant foxtail (Setaria faberii); assay: Test B pre-/postemergence plant response; conditions: for Plant response rating, Foxtail, Giant: Postemergence
Excerpt: as §3, §1, §2

[10] = tested on: surinam grass (Brachiaria decumbens); assay: Test B pre-/postemergence plant response; conditions: for Surinam Grass plant response rating: postemergence, 0-100 scale; for Plant response rating, Surinam Grass: Postemergence
Excerpt: as §3, §1, §2

[11] = tested on: morningglory (Ipomoea coccinea); assay: Test B pre-/postemergence plant response; conditions: for Morningglory plant response rating: postemergence, 0-100 scale; for Plant response rating, Morningglory: Postemergence
Excerpt: as §3, §1, §2

[12] = tested on: Italian ryegrass (Lolium multiflorum); assay: Test B pre-/postemergence plant response; conditions: for Ryegrass, Italian plant response rating: postemergence, 0-100 scale; for Plant response rating, Ryegrass, Italian: Postemergence
Excerpt: as §3, §1, §2

[13] = tested on: lambsquarters (Chenopodium album); assay: Test B pre-/postemergence plant response; conditions: for Lambsquarters plant response rating: postemergence, 0-100 scale; for Plant response rating, Lambsquarters: Postemergence
Excerpt: as §3, §1, §2

[14] = 8 g ai/ha, postemergence, 0-100 scale
[15] = 62 g ai/ha, scale 0 to 100, 0 no effect, 100 complete control

COCc1cc(-c2ccc(Br)cc2)nn1-c1c(O)cnn(C)c1=O [Compound 68]
35: Plant response rating, Windgrass [4, 15] | Surinam Grass plant response rating ([10]; 8 g ai/ha) | Surinam Grass plant response rating ([10]; 16 g ai/ha)
60: Plant response rating, Foxtail, Giant ([9]; 16 g ai/ha, scale 0 to 100)
90: Plant response rating, Foxtail, Giant [9, 15]
0: Canarygrass plant response rating [1, 14] | Plant response rating, Canarygrass ([1]; 16 g ai/ha, scale 0 to 100) | Plant response rating, Canarygrass ([1]; 31 g ai/ha, scale 0 to 100) | Chickweed plant response rating [2, 14] | Plant response rating, Chickweed ([2]; 16 g ai/ha, scale 0 to 100) | Plant response rating, Chickweed ([2]; 31 g ai/ha, scale 0 to 100) | Plant response rating, Chickweed [2, 15] | Barley plant response rating [3, 14] | Plant response rating, Barley ([3]; 16 g ai/ha) | Plant response rating, Barley ([3]; 31 g ai/ha) | Plant response rating, Barley ([3]; 62 g ai/ha) | Windgrass plant response rating ([4]; 8 g ai/ha) | Windgrass plant response rating ([4]; 16 g ai/ha) | Plant response rating, Windgrass ([4]; 31 g ai/ha, scale 0 to 100) | Wheat plant response rating ([5]; 8 g ai/ha) | Wheat plant response rating ([5]; 16 g ai/ha) | Plant response rating, Wheat ([5]; 31 g ai/ha, scale 0 to 100) | Plant response rating, Wheat [5, 15] | Soybean plant response rating (soybean (Glycine max); 8 g ai/ha) | Soybean plant response rating (soybean (Glycine max); 16 g ai/ha) | Plant response rating, Soybean (soybean (Glycine max); 31 g ai/ha, scale 0 to 100) | Plant response rating, Soybean (soybean (Glycine max); [15]) | Bermudagrass plant response rating [6, 14] | Plant response rating, Bermudagrass ([6]; 16 g ai/ha, scale 0 to 100) | Plant response rating, Bermudagrass ([6]; 31 g ai/ha, scale 0 to 100) | Plant response rating, Bermudagrass [6, 15] | Pigweed plant response rating ([7]; 8 g ai/ha) | Pigweed plant response rating ([7]; 16 g ai/ha) | Plant response rating, Pigweed ([7]; 31 g ai/ha, scale 0 to 100) | Plant response rating, Pigweed [7, 15] | Bromegrass, Downy plant response rating [8, 14] | Plant response rating, Bromegrass, Downy ([8]; 16 g ai/ha, scale 0 to 100) | Plant response rating, Bromegrass, Downy ([8]; 31 g ai/ha, scale 0 to 100) | Plant response rating, Bromegrass, Downy [8, 15] | Morningglory plant response rating ([11]; 8 g ai/ha) | Morningglory plant response rating ([11]; 16 g ai/ha) | Plant response rating, Morningglory ([11]; 31 g ai/ha, scale 0 to 100) | Plant response rating, Morningglory [11, 15] | Ryegrass, Italian plant response rating ([12]; 8 g ai/ha) | Lambsquarters plant response rating ([13]; 8 g ai/ha) | Lambsquarters plant response rating ([13]; 16 g ai/ha) | Plant response rating, Lambsquarters ([13]; 31 g ai/ha, scale 0 to 100) | Plant response rating, Lambsquarters [13, 15]
95: Plant response rating, Ryegrass, Italian [12, 15]
65: Plant response rating, Foxtail, Giant ([9]; 31 g ai/ha, scale 0 to 100)
80: Plant response rating, Surinam Grass ([10]; 31 g ai/ha, scale 0 to 100) | Plant response rating, Surinam Grass [10, 15] | Plant response rating, Ryegrass, Italian ([12]; 31 g ai/ha, scale 0 to 100)
10: Plant response rating, Canarygrass [1, 15] | Foxtail, Giant plant response rating [9, 14] | Ryegrass, Italian plant response rating ([12]; 16 g ai/ha)
